Measured values published in patent US20240158370A1, “CK1 alpha AND DUAL CK1 alpha / GSPT1 DEGRADING COMPOUNDS” (Innovo Therapeutics, Inc., priority 2022, published 2024).

How the values were obtained:
CK1α = biological target: T1, CK1α (Homo sapiens, UniProt P48729+Q96SW2); assay: HiBiT degradation assay, CK1α, Procedure A; format: cell-based
T1 construct: CSNK1A1-HiBit KI HEK293(LgBit) Cells; host or cells: HEK293(LgBit) knock-in cells
Outline: (§1)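 Cells in DMEM + 10% FBS were treated with compound in a ten-point dose response from 10 μM to 0.005 μM (0.1% DMSO) for six hours at 37° C. Lysis with Nano-Glo HiBiT detection reagent followed, with luminescence read. DC50 and Ymin came from a 4-parameter fit.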

GSPT1 = GSPT1 (Homo sapiens, UniProt P15170+Q96SW2); assay: HiBiT degradation assay, GSPT1, Procedure A; format: cell-based; set-up: HiBit-GSPT1 KI HEK293(LgBit) Cells; host or cells: HEK293(LgBit) knock-in cells
Sequence of GSPT1 (P15170 whole entry): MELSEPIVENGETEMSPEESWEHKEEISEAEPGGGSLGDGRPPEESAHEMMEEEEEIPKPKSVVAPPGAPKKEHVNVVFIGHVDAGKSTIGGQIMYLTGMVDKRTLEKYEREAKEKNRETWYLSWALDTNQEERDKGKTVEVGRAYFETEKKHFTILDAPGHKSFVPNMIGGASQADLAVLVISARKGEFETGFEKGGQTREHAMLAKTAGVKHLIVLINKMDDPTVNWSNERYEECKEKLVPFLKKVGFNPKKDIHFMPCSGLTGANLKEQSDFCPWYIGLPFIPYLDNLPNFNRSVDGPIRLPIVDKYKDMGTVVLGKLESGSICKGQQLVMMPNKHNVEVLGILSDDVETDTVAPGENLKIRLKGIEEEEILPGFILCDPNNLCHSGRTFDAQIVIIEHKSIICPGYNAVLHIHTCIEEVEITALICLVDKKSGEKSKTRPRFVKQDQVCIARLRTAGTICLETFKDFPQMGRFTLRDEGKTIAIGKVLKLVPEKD
Sequence of GSPT1 (Q96SW2 whole entry): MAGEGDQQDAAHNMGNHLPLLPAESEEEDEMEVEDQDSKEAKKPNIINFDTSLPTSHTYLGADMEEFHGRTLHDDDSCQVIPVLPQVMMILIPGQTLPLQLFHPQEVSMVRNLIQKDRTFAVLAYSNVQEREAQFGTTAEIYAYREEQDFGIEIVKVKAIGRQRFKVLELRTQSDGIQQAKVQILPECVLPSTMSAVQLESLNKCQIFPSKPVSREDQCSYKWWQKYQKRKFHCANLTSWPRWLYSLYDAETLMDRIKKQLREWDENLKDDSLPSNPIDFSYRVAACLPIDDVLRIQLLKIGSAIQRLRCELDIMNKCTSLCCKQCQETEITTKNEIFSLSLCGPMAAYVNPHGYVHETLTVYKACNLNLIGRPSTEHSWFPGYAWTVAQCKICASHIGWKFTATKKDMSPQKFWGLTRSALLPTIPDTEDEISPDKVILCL
Sequence of GSPT1 (Q16531 whole entry partner): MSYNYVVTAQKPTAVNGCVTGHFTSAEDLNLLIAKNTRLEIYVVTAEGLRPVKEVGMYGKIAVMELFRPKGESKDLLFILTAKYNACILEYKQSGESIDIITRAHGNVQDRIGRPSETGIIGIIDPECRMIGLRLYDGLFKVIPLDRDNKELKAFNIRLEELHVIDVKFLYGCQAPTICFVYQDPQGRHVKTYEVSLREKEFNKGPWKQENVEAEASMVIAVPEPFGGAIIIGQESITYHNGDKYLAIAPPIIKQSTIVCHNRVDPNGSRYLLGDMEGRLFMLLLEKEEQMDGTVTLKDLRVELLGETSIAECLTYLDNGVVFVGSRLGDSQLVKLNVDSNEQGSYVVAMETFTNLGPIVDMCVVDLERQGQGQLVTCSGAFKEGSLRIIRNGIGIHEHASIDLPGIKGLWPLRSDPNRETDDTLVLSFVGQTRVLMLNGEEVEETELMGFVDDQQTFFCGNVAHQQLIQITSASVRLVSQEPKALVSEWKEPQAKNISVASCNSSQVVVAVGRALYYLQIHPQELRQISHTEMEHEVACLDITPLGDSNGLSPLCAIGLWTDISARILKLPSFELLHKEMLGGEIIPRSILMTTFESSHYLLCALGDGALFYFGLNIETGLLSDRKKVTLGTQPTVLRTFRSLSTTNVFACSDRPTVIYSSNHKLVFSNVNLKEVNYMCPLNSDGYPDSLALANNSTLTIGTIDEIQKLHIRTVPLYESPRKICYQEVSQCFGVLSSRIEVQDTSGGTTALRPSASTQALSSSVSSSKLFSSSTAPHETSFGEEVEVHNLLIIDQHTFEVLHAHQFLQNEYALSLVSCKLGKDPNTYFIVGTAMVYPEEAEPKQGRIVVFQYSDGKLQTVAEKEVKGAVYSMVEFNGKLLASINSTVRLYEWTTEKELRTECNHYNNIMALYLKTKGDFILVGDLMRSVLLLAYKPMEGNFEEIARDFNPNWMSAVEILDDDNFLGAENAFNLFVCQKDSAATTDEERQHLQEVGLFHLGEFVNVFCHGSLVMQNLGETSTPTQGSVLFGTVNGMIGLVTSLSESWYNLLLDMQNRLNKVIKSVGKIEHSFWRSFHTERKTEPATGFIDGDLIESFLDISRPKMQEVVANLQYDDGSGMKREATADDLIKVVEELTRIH
Outline: as §1

T1 sequence (P48729 whole entry): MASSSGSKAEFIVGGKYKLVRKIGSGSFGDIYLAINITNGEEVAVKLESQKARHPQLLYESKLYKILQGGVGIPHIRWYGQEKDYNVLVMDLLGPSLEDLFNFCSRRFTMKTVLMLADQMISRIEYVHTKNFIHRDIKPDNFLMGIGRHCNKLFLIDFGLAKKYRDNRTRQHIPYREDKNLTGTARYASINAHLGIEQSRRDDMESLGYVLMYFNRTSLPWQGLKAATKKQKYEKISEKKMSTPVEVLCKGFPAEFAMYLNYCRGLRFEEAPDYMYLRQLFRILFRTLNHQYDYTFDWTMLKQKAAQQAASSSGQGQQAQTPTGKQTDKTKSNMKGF
T1 sequence (Q96SW2 whole entry): as the sequence (Q96SW2 whole entry) above
T1 sequence (Q16531 whole entry partner): as the sequence (Q16531 whole entry partner) above

CK1α Ymin (CK1α; six hours incubation)	DC50 (CK1α; six hours incubation) [nM]	DC50 (GSPT1; six hours incubation) [nM]	GSPT1 Ymin (GSPT1; six hours incubation)	CK1α Ymin (CK1α; six hours)	DC50 (CK1α; six hours) [nM]	DC50 (GSPT1; six hours) [nM]	GSPT1 Ymin (GSPT1; six hours)	Compound
F (F = >75-100% remaining)	≥ 25	≥ 25	F (F = >75-100% remaining)	–	–	–	–	CN1N=CC(c2ccc3c(c2)CN(C2CCC(=O)NC2=O)C3=O)C1c1cnc(C#N)nc1 (stereo not drawn) [Example 374]
D (D = >10- 25% remaining)	< 25	≥ 25	F (F = >75-100% remaining)	–	–	–	–	Cn1cc(-c2c(-c3ccc4c(c3)CN(C3CCC(=O)NC3=O)C4=O)cnn2C)cc1C#N (stereo not drawn) [Example 375]
D (D = >10- 25% remaining)	< 25	≥ 25	F (F = >75-100% remaining)	–	–	–	–	CN1N=CC(c2ccc3c(c2)CN(C2CCC(=O)NC2=O)C3=O)C1c1cnn(C2CC2)c1 (stereo not drawn) [Example 376]
E (E = >25-75% remaining)	< 25	≥ 25	F (F = >75-100% remaining)	–	–	–	–	COc1ncccc1-c1c(-c2ccc3c(c2)CN(C2CCC(=O)NC2=O)C3=O)cnn1C (stereo not drawn) [Example 377]
–	–	–	–	E (E = >25-75% remaining)	< 25	≥ 25	F (F = >75-100% remaining)	COc1ccc(-c2c(-c3ccc4c(c3)CN(C3CCC(=O)NC3=O)C4=O)cnn2C)cn1 (stereo not drawn) [Example 378]
–	–	–	–	E (E = >25-75% remaining)	< 25	≥ 25	F (F = >75-100% remaining)	Cn1ncc(-c2ccc3c(c2)CN(C2CCC(=O)NC2=O)C3=O)c1-c1cc2ccccc2[nH]1 (stereo not drawn) [Example 380]
–	–	–	–	D (D = >10- 25% remaining)	< 25	≥ 25	F (F = >75-100% remaining)	Cn1ncc(-c2ccc3c(c2)CN(C2CCC(=O)NC2=O)C3=O)c1-c1ccc2occc2c1 (stereo not drawn) [Example 381]

Further lines, the compound ahead of its results:

Compound	CK1α Ymin (CK1α; six hours incubation)	DC50 (CK1α; six hours incubation) [nM]	DC50 (GSPT1; six hours incubation) [nM]	GSPT1 Ymin (GSPT1; six hours incubation)	CK1α Ymin (CK1α; six hours)	DC50 (CK1α; six hours) [nM]	DC50 (GSPT1; six hours) [nM]	GSPT1 Ymin (GSPT1; six hours)
Cc1ccc(-c2c(-c3ccc4c(c3)CN(C3CCC(=O)NC3=O)C4=O)cnn2C)o1 (stereo not drawn) [Example 365]	D (D = >10- 25% remaining)	≥ 25	≥ 25	F (F = >75-100% remaining)	–	–	–	–
Cn1cc(-c2c(-c3ccc4c(c3)CN(C3CCC(=O)NC3=O)C4=O)cnn2C)cn1 (stereo not drawn) [Example 366]	C (C = 0-10% remaining)	< 25	≥ 25	F (F = >75-100% remaining)	–	–	–	–
Cc1ccc(-c2c(-c3ccc4c(c3)CN(C3CCC(=O)NC3=O)C4=O)cnn2C)cn1 (stereo not drawn) [Example 367]	C (C = 0-10% remaining)	< 25	< 25	F (F = >75-100% remaining)	–	–	–	–
Cc1cc(-c2c(-c3ccc4c(c3)CN(C3CCC(=O)NC3=O)C4=O)cnn2C)ccn1 (stereo not drawn) [Example 368]	E (E = >25-75% remaining)	< 25	< 25	F (F = >75-100% remaining)	–	–	–	–
Cc1cncc(-c2c(-c3ccc4c(c3)CN(C3CCC(=O)NC3=O)C4=O)cnn2C)c1 (stereo not drawn) [Example 369]	F (F = >75-100% remaining)	≥ 25	≥ 25	F (F = >75-100% remaining)	–	–	–	–
Cn1ncc(-c2ccc3c(c2)CN(C2CCC(=O)NC2=O)C3=O)c1-c1ccc(N)nc1 (stereo not drawn) [Example 370]	E (E = >25-75% remaining)	≥ 25	≥ 25	–	–	–	–	–
Cn1ncc(-c2ccc3c(c2)CN(C2CCC(=O)NC2=O)C3=O)c1-c1cncc(N)c1 (stereo not drawn) [Example 371]	D (D = >10- 25% remaining)	≥ 25	≥ 25	F (F = >75-100% remaining)	–	–	–	–
Cc1c(-c2c(-c3ccc4c(c3)CN(C3CCC(=O)NC3=O)C4=O)cnn2C)cnn1C (stereo not drawn) [Example 372]	E (E = >25-75% remaining)	≥ 25	≥ 25	F (F = >75-100% remaining)	–	–	–	–
Cc1nn(C)cc1-c1c(-c2ccc3c(c2)CN(C2CCC(=O)NC2=O)C3=O)cnn1C (stereo not drawn) [Example 373]	E (E = >25-75% remaining)	≥ 25	≥ 25	F (F = >75-100% remaining)	–	–	–	–
